Like-named read-outs stand apart in the source and are kept apart here. Marks after values point to notes of the source that are not given here.
Key:
[1] = Electrochemical Cu2+/Cu+ reduction potentials of copper-bound CG complexes; format: physicochemical; conditions: PBS buffer, pH 7.4
Experimental: CG6 is a unique member of the CG family that is equally responsive to both Cu^+ and Cu^2+. Addition of either Cu^+ or Cu^2+ to CG6 triggers a maximum 73% relaxivity turn-on from r1=2.2 mM^−1s^−1 to r1=3.8 mM^−1s^−1. […] On the other hand, copper-bound CG6, which responds to both Cu^+ and Cu^2+, has the least positive Cu^2+/Cu^+ reduction potential at +0.13 V.

[2] = Longitudinal relaxivity (r1) from T1 measurements at 60 MHz, absence of copper; format: physicochemical; conditions: no copper; 60 MHz, 20 mM HEPES buffer, pH 7, 37° C., 0.2 mM Gd^3+
Experimental: (§1) The longitudinal relaxivity values for the CG contrast agents in the absence or presence of copper ions were determined using T1 measurements at 60 MHz. Studies were performed at 37° C. in 20 mM HEPES buffered to pH 7, and solutions of the purified CG sensors for relaxivity experiments contained 0.2 mM Gd^3+ as determined by ICP-OES. Spectroscopic data are collected in Table 1.
Nuclear magnetic relaxation dispersion (NMRD) experiments provide supporting evidence for this proposal (vide infra).

[3] = Metal ion selectivity of relaxivity response (competing metal ions alone or with added copper); format: physicochemical; conditions: relaxivity at 60 MHz, 20 mM HEPES, pH 7, 37° C.
Experimental: FIG. 6. Relaxivity responses of CG2 to various metal ions. White bars represent the addition of an excess of the appropriate metal ion (10 mM for Na^+, 2 mM for K^+, Mg^2+, and Ca^2+, and 0.2 mM for Fe^2+, Fe^3+, Cu^2+) to a 0.2 mM solution of CG2. Response to Zn^2+ was measured both at 0.2 mM Zn^2+ (Zn^2+1×) and 2 mM Zn^2+ (Zn^2+10×). Black bars represent the subsequent addition of 0.2 mM Cu^+ to the CG2 solution. Relaxivity measurements were acquired at 37° C. in 20 mM HEPES buffer, pH 7, at a proton Larmor frequency of 60 MHz.
The potential ability of this new family of CG sensors to sense bioavailable copper pools in either or both its predominant oxidation states represents a significant advance over the initial CG1 compound.

[4] = Apparent Kd for Cu+ by UV-visible absorption with competing ligand thiourea; format: binding; conditions: 20 mM HEPES buffer, pH 7, 25° C., 1:1 stoichiometry assumed, read-out: Kd (apparent dissociation constant)
Experimental: FIG. 5. Normalized absorbance response of 0.2 mM CG2-6 to buffered Cu^+ (CG2-5) or Cu^2+ (CG6) solutions for Kd value determination. Spectra were acquired in 20 mM HEPES, pH 7.

[5] = Longitudinal relaxivity (r1) turn-on response to Cu+ from T1 measurements at 60 MHz; format: physicochemical; conditions: pH 7, 37° C.
Experimental: as §1
Upon addition of up to 1 equiv of copper ions, the relaxivity values of the CG contrast agents increase, establishing the ability of these probes to sense copper using the MR modality (Table 1, FIG. 3). CG2, CG3, CG4, and CG5 respond to Cu^+ with relaxivity increases ranging from 92% to 360%. […] These values represent the largest relaxivity enhancements observed to date for metal-activated MR contrast agents and a ca. 9-fold improvement in copper ion response compared to CG1 (41% increase). The observed differences in turn-on Cu^+ responses for benzyl-substituted CG4 (290% increase) versus methyl-substituted CG5 (92% increase) with the same pyridyl-thioether receptor show the marked effects that small peripheral substitutions can have on relaxivity properties.

[6] = Nuclear magnetic relaxation dispersion (NMRD) profiles, Solomon-Bloembergen-Morgan fit; format: physicochemical; conditions: copper free
Experimental: FIG. 9. ^1H Nuclear magnetic relaxation dispersion profiles of CG3 and CG3+Cu^+ acquired at 25° C. The solid lines represent the best fit profiles.
As a secondary, independent set of experiments to further probe the mechanisms of copper ion sensing by the CG contrast agents, we also performed nuclear magnetic relaxation dispersion (NMRD) measurements of these sensors in the absence and in the presence of copper ions using a field cycling relaxometer (FIG. 9). The profiles obtained were analyzed following Solomon-Bloembergen-Morgan theory^36-38 for the inner-sphere relaxivity and the Freed model^115 for the outer-sphere relaxivity, fixing the diffusion coefficient (D) at […], the distance between Gd^3+ and the inner sphere water protons (r) at 3.1 Å, and the inner sphere exchange lifetime (τM) at 160 ns, the reported value for the parent complex Gd^3+-DO3A. Profiles were obtained for all compounds in the copper-free state. Profiles in the presence of Cu^n+ were obtained for CG2-4 (Cu^+) and CG6 (Cu^2+).
In fact, the measured outer-sphere relaxivities were so low that, in order to obtain a reasonable fit, the distance of closest approach of outer-sphere water protons (a) was allowed to vary. The distances obtained for the CG complexes (4.2-4.8 Å) were markedly longer than what is observed for typical Gd^3+ contrast agents with greater water access (3.8-4 Å). These values correlate with the copper-free relaxivities of CG2-6; longer a values give lower relaxivities and shorter a values give higher relaxivities. For Cu^+-sensing agents CG2-4, the estimated change in q of 2 as determined by DIS measurements was also observed in the fitted NMRD data. In fact, any attempt to fit the observed NMRD profiles with q=1 led to very poor agreement between experimental and calculated values. The change in q of 1 for CG6 upon addition of Cu^2+ as determined by NMRD is consistent with the lower turn-on response observed with this complex compared to CG2-4. The reduced q modulation for CG6 relative to CG2-4 could indicate that the carboxylic acid moiety used for Cu^2+ binding also interacts with the Gd^3+ center in the Cu^2+-bound state. The fitted rotational correlation times (τR) for copper-bound CG complexes all fall within the range expected for Gd^3+ complexes with molecular weights of 700-800 D. τR values for copper-free CG2-6 were fixed to values close to their copper-bound analogues as fits of NMRD data for q=0 complexes are not sensitive to small changes in τR. The values of Δ^2 (average quadratic transient zero field splitting), τv (electronic correlation time), and τs0 (electronic relaxation time at zero field), which govern the electronic relaxation time, are relatively similar to each other. These NMRD values are closer to those of Gd^3+-DTPA than Gd^3+-DOTA, reflecting the asymmetry of CG2-6.^64

[7] = in water, measured at 10 MHz; cited from earlier work
[8] = see reference 90, cited from earlier work
[9] = Dysprosium-induced 17O NMR shift (DIS) experiments for q; format: physicochemical; conditions: for −Δ ppm/[Dy] (DIS slope): no Cu^+
Experimental: FIG. 8. Plot of [DyCG2] vs. −Δ ppm of the ^17O signal of H2O in the absence and presence of 1 equiv Cu^+. Spectra were acquired at room temperature in 20 mM HEPES buffer, pH 7, at a ^17O Larmor frequency of 67.8 MHz.
To circumvent these issues, we turned our attention to an alternative method for obtaining q values, namely the application of ^17O NMR spectroscopy to Dy^3+ analogs of the CG sensors (DyCG2-6).^114 Specifically, interactions of water ligands with paramagnetic Dy^3+ ions lead to an upfield shift of the ^17O signals of H2O in a manner proportional to both the concentration of Dy^3+ and q. Moreover, this lanthanide-induced shift is largely insensitive to the non-water ligands coordinated to the paramagnetic metal center.^114 Dysprosium-induced shift (DIS) experiments for CG2 and CG3 were performed in 20 mM HEPES buffered to pH 7; CG4 and CG5 spectra were acquired in 10% acetonitrile in 20 mM HEPES buffered to pH 7 owing to solubility and stability of the Cu^+-bound complexes at higher Dy^3+ concentrations required for the DIS measurements (1-200 mmol/kg H2O). Dy concentrations were calculated using molality (with respect to H2O) since the ^17O shift represents the interaction between Dy^3+ and H2O; addition of CH3CN aids in stabilizing certain complexes but should not affect the DIS. The spectral results were calibrated to a DyCl3 standard (q=9) to determine the number of bound water molecules for the CG sensors with and without added Cu^+. A plot of varying DyCl3 concentrations versus DIS in pH 7 HEPES buffer has a slope of 324 ppm/(mol/kg H2O), which corresponds to a 36 ppm/(mol/kg H2O) shift per bound water molecule.
The effects of DyCG2 on the chemical shift of ^17O-labeled H2O were determined in the absence and presence of 1 equiv Cu^+ at various concentrations of Dy^3+ (FIG. 8). In the absence of Cu^+, the measured ^17O shift response for DyCG2 is 9 ppm/(mol/kg H2O), corresponding to q=0.3. When 1 equiv of Cu^+ is added, the observed shift response increases to 72 ppm/(mol/kg H2O), corresponding to q=2.0. […] DIS measurements of DyCG4 and DyCG5 without Cu^+ show slopes of 7 ppm/(mol/kg H2O) (q=0.2) and 12 ppm/(mol/kg H2O) (q=0.3), respectively. Cu^+ binding increases the DIS slopes for DyCG4 and DyCG5 to […] ([…]) and 41 ppm/(mol/kg H2O) (q=1.0), respectively.

CCSCCN(C)Cc1cccc(CN2CCN(CC(=O)[O-])CCN(CC(=O)[O-])CCN(CC(=O)[O-])CC2)n1.[Gd+3] [CG5]
Cu^2+/+ E1/2 [1]: 0.34 V vs. SHE
r1 (no Cu) [2]: 1.2 mM⁻¹ s⁻¹
redox specificity of relaxivity response (Cu^+ vs Cu^2+) [3]: give turn-on relaxivity increases with Cu^+ but do not respond to Cu^2+
Kd [4]: 0.032 nM
% increase in r1 ([5]; 1 equiv Cu^+ vs no Cu, 20 mM HEPES): 92%
r1 (1 equiv Cu) ([5]; 1 equiv Cu^+, 20 mM HEPES buffer): 2.3^b mM^−1s^−1
τs0 (electronic relaxation time at zero field) [6]: 95 ps
r1p 20 MHz 25° C. ([6]; 0.5 mM, 20 mM HEPES pH 7): 1.6 mM⁻¹ s⁻¹
a (distance of closest approach of outer-sphere water protons) ([6]; best-fit value): 4.8 ± 0.12 Å
Δ^2 (average quadratic transient zero field splitting) ([6]; best-fit value): 3.5 ± 0.8 10^19 s^−2
τv (electronic correlation time) ([6]; best-fit value): 25 ± 4.2 ps
q ([6]; fixed in the fitting procedure): 0^c
τR (rotational correlation time) ([6]; not experimentally determined, assumed equal to corresponding q ≠ 0 complex (CG5: average of the other complexes)): 100^e ps

[Cu+2] [Cu^2+]
r1 value [7]: 1.0 mM⁻¹ s⁻¹

[Cl][Dy]([Cl])[Cl] [DyCl3, reference compound]
q of calibration standard ([8]; 20 mM HEPES, pH 7): 9^a
q of calibration standard ([8]; 10% CH3CN in 20 mM HEPES pH 7): 9^a
−Δ ppm/[Dy] (DIS slope) ([9]; 20 mM HEPES, pH 7): 324 ppm/(mol/kg H2O)
−Δ ppm/[Dy] (DIS slope) ([9]; 10% CH3CN in 20 mM HEPES pH 7): 362 ppm/(mol/kg H2O)
shift per bound water molecule ([9]; 10% acetonitrile in 20 mM pH 7 HEPES buffer): 40 ppm/(mol/kg H2O)
shift per bound water molecule ([9]; pH 7 HEPES buffer): 36 ppm/(mol/kg H2O)
